Experimental data as given in patent US12133486B2, “Methods of propagation of arbuscular mycorrhizal fungi (AMF) and uses thereof” (Terra Microbes, LLC, priority 2021, dated 2024).

Test system: AMF infections of western wheatgrass (Pascopyron smithii) roots
Experiment: Field plot study: AM fungal infection of western wheatgrass roots
Format: in vivo
Conditions: for AM Infection t = 0 days / AM Infection t = 47 days / AM Infection t = 97 days: western wheatgrass roots, field plots, mean n = 3; for AM Infection t = 0 days: first sampling; for AM Infection t = 97 days: third sampling
From the text: Twelve plots of size 50 cm by 50 cm were established on a homogenous site 2.54 meters (running northeast and southwest) by 4.06 meters (running southeast and northwest). Plant distribution was mostly homogeneous across the entire site, with western wheatgrass dominant. The plots were in four rows with three plots in each row. Within a row plots were 25 cm apart. Rows were 50 cm apart. An experimental unit was one plot. Treatments were replicated three times. Treatments included: controls (no treatment), potassium chloride treatment, potassium phosphate treatment, and potassium phosphite treatment. (See, FIG. 2).
Treatments: All plots received the same amount of solution. The control plots were treated with distilled water only (6.375 L). The KCl plots treated with distilled water containing the same amount of K as was needed to convert the phosphorous acid (H3PO3) to dipotassium phosphite (K2HPO3). The phosphate plots were treated with sufficient dipotassium phosphate (K2HPO4) to deliver 3 g of P per plot dissolved in the same amount of distilled water as the control plots received and the KCl plots received. The phosphite plots were treated with sufficient dipotassium phosphite (K2HPO3) to deliver 3 g of P per plot dissolved in the same amount of distilled water as the control plots received, the KCl plots received and the phosphate plots received.
The field experiment reported in this example was conducted during June through October. Plots were established during early June and treated on the 15th and 16th day (as in Example 3 above). […] Sample size and depth was as detailed above in Example 3.
Analyses of infections were performed by examining roots of wheatgrass (Pascopyron smithii). This plant was the dominant plant in all of the plots and is known to be commonly infected with AM fungi. (See, Loree M. A. J. and Williams S. E., New Phytologist, 106:735-744, 1987; and Wang B. and Qui Y.-L. 2006, Ibid.). During sampling of soils using the methodology outlined in Example 3, above, root of target plants were removed and separated by plant species, each sample being labeled and preserved in FAA solution until being further processed.
Staining of the roots was achieved according to published procedures (see, Phillips J. M. and Hayman D. S., Trans. Brit. Mycological Soc., 55:158-160, 1970) except that cotton blue lactophenol was substituted with lactic acid glycerol with trypan blue since lactophenol is toxic. The procedure used for staining was as follows: • A) Remove roots from FAA Solutions. Cut into 1 cm lengths. Place in test tube, push roots to the bottom of the test tube. • B) Cover roots with 10% KOH (10 grams of reagent grade KOH in enough distilled water to 100 ml). Let stand overnight, about 10 hours. • C) Simmer at 90° C. for one hour in a water bath (container with water and test tubes with roots over a heat source). • D) Rinse in tap water. • E) Rinse five minutes in 0.1 N HCl (3.65 […] of HCl in 1000 ml total volume with distilled water). • F) Rinse in tap water. • G) Simmer at 90° C. one hour (in water bath) in Trypan blue Lactic Acid Glycerol (distilled water, 100 ml; lactic acid (reagent grade 85 to 88%) 100 ml; glycerin (reagent grade 85% also listed as glycerol), 200 ml; trypan blue, 0.1 grams (60% dye content). • H) Rinse in tap water. • I) Place in clear lactic acid glycerol (same formulation as above except without the Trypan blue) if destaining is necessary. Samples can be simmered at 90° C. (one hour in water bath) or left at room temperature for at least 72 hours or longer. • J) Mount on standard glass slide (2.5 cm by 7.6 cm) in lactic acid glycerol. Cover slip (2.3 cm by 4.8 cm) used.
An estimate of the degree of infection of western wheatgrass was made by making microscopic scans of each slide such that 40 root segments were evaluated. The evaluation was performed using the 20× objective, e.g., 200× total magnification—eyepieces were 10× multiplied by the objective magnification. […]

| SMILES | AM Infection t = 0 days | AM Infection t = 47 days (second sampling) | AM Infection t = 97 days | root infection level compared with control, KCl and phosphite plots (second sampling, t = 47) |
| --- | --- | --- | --- | --- |
| OP(O)O [PO3, dipotassium phosphite] | 32Aa Per forty 1.1 mm root segments | 31Aab Per forty 1.1 mm root segments | 39ACc Per forty 1.1 mm root segments |  |
| O=P([O-])([O-])O.[K+].[K+] [PO4, dipotassium phosphate] | 31Aa Per forty 1.1 mm root segments | 38.7Bbc Per forty 1.1 mm root segments | 38ACc Per forty 1.1 mm root segments | significant increase |
